Measurements reported in PMC7195821 (Cell Discovery, 2020).
Counter-ions that a name gives are not always drawn.

Experiments:
SARS-CoV-2 [1] = conditions: cited from earlier work
SARS-CoV-2 [2] = assay: Antiviral activity against SARS-CoV-2 in Vero E6 cells, qRT-PCR of virus yield in supernatant at 48 h p.i.; type: cell-based; conditions: for anti-SARS-CoV-2 activity (in words): up to the highest drug concentrations; for EC50: Severe acute respiratory syndrome coronavirus 2, Vero C1008, 48 h, read-out: 50% maximal effective concentration (EC50)
[3] = Cytotoxicity by cell counting kit-8 (CCK8) assay; conditions: African green monkey
SARS-CoV = conditions: cited from earlier work
SARS-CoV-2 [4] = assay: Cytopathic effects (CPE) and immunofluorescence staining of infected cells; type: cell-based; conditions: Vero E6 cells, 48 h p.i., MOI 0.05
COVID-19 patients = tested on: COVID-19 patients; parameters: method as in PMID 32176772; conditions: retrospective study; cited from earlier work
SARS-CoV-2 NP expression = assay: Time-of-addition experiment, viral NP expression by western blot; type: cell-based; conditions: arbidol 10 μM, 16 h p.i.
Procedure: (§1) The antiviral efficacy was evaluated in Vero E6 cells by qRT-PCR analysis of virus yield at 48 h p.i. Data represent the mean ± standard deviation (SD) from two independent repeats. b, c Time-of-addition experiment of arbidol. Three experimental groups (Full-time, Entry, and Post-entry) were set up as described in the Supplementary Methods. At 16 h p.i., virus yield in the cell supernatant was quantified by qRT-PCR (b), and the expression of NP in infected cells was analyzed by western blots (c). […] The co-localization of virions with EEs or LEs was analyzed by immunofluorescence assays as described in the Supplementary Methods. e The portion of virions that co-localized with EEs or ELs in each group (n > 150 cells) was quantified by Image J. f Representative confocal microscopic images of virions (red) and LAMP1^+ ELs (green) in each group. The nuclei (blue) were stained with Hoechst 33258 dye. White arrows: virions co-localized with ELs; bars: 10 μm. For (b) and (e), statistical analysis was performed using a one-way analysis of variance (ANOVA) with GraphPad Prism. For (d), statistical analysis was performed and calculated by unpaired two-tailed t test. *P < 0.05; ***P < 0.001; ns, not significant.
Arbidol was incubated with cells during the virus entry process (Entry), the post-entry stages (Post-entry), or the entire process of infection (Full-time) and progeny virus yield was quantified by qRT-PCR.
Viral RNA/DNA Extraction Kit; Takara, CAT No. 9766). Three microliter out of 30 μL total eluted RNA was used for cDNA synthesis with a PrimeScript RT Reagent Kit with gDNA Eraser (Takara, CAT No. RR047A). The qRT-PCR was performed with TB Green Premix Ex Taq II (Takara, CAT No. RR820A) on a StepOne Plus Real-time PCR system (AB). The primers used for qRT-PCR were RBD-qF1: […]
RBD-qR1:5’-[…]-3’. The experiments were performed in triplicate with two independent repeats and the data represent the mean ± SD from […]
Time-of-addition experiment […]
At 16 h p.i., virus production in the culture supernatants was quantified by qRT -PCR. […]

SARS-CoV-2 [5] = assay: Time-of-addition experiment, virus yield by qRT-PCR; type: cell-based
Procedure: as §1, with “For (b) and (e), statistical analysis was performed using a one-way analysis of variance (ANOVA) with GraphPad Prism.” left out
Arbidol was incubated with cells during the virus entry process (Entry), the post-entry stages (Post-entry), or the entire process of infection (Full-time) and progeny virus yield was quantified by qRT-PCR. […]
At 16 h p.i., virus production in the culture supernatants was quantified by qRT -PCR.

[6] = humans, single oral administration of 800 mg; cited from earlier work
SARS-CoV-2 virions = assay: Intracellular trafficking: co-localization of virions with EEs or ELs by immunofluorescence; type: cell-based; conditions: arbidol 10 μM, MOI 5
influenza viruses = conditions: read-out: EC50 against different influenza viruses; cited from earlier work
SARS-CoV-2 binding = assay: Virus binding assay on Vero E6 cells at 4 °C, qRT-PCR; type: cell-based; conditions: arbidol 10 μM, 4 °C for 1 h, MOI 0.05, P < 0.001

COC(=O)OCOc1c2n(ccc1=O)N([C@@H]1c3ccccc3SCc3c1ccc(F)c3F)[C@@H]1COCCN1C2=O [Baloxavir, Baloxavir marboxil]
inhibition of SARS-CoV-2 in vitro (in words) (SARS-CoV-2 [1]; ref 11 (Choy et al.)): failed to inhibit
anti-SARS-CoV-2 activity (in words) (SARS-CoV-2 [2]; Vero E6 cells): failed to block SARS-CoV-2 infection
inhibition of SARS-CoV-2 infection (SARS-CoV-2 [2]; at 50 μM, Vero E6 cells, 48 h p.i.): ~ 29%

[H]/N=C(\N)N[C@H]1C=C(C(=O)O)O[C@@H]([C@H](OC)[C@H](O)CO)[C@@H]1NC(C)=O [Laninamivir]
EC50 (SARS-CoV-2 [2]): > 30 µM
anti-SARS-CoV-2 activity (in words) (SARS-CoV-2 [2]; Vero E6 cells): did not exhibit anti-SARS-CoV-2 activity
CC50 at 24 h [3]: > 100 µM

CCC(CC)[C@H](NC(C)=O)[C@@H]1[C@H](O)[C@@H](C(=O)O)C[C@H]1N=C(N)N.O.O.O [Peramivir, Peramivir Trihydrate]
anti-SARS-CoV-2 activity (in words) (SARS-CoV-2 [2]; Vero E6 cells): did not exhibit anti-SARS-CoV-2 activity

CC(=O)N[C@H]1[C@H]([C@H](O)[C@H](O)CO)OC(C(=O)O)=C[C@@H]1N=C(N)N [Zanamivir]
EC50 (SARS-CoV-2 [2]): > 100 µM
anti-SARS-CoV-2 activity (in words) (SARS-CoV-2 [2]; Vero E6 cells): did not exhibit anti-SARS-CoV-2 activity
inhibition of SARS-CoV (in words) (SARS-CoV): ineffective
CC50 at 24 h [3]: > 100 µM

CCOC(=O)c1c(CSc2ccccc2)n(C)c2cc(Br)c(O)c(CN(C)C)c12 [arbidol, Arbidol hydrochloride]
viral NP expression and CPE due to SARS-CoV-2 (SARS-CoV-2 [4]): substantially reduced
discharging rate and mortality rate of COVID-19 patients (in words) (COVID-19 patients): tendency to improve the discharging rate and decrease the mortality rate
expression level of viral NP (NP/GAPDH), % of the DMSO group, Entry (SARS-CoV-2 NP expression; Entry stage): 41%
expression level of viral NP (NP/GAPDH), % of the DMSO group, Full-time (SARS-CoV-2 NP expression; Full-time): 13%
expression level of viral NP (NP/GAPDH), % of the DMSO group, Post-entry (SARS-CoV-2 NP expression; Post-entry stage): 61%
inhibition at 10 µM (SARS-CoV-2 [5]; Severe acute respiratory syndrome coronavirus 2, 16 h, read-out: inhibition rate of virus yield, Post-entry): ~55%
inhibition of virus yield, Entry (SARS-CoV-2 [5]; arbidol 10 μM during virus entry, MOI 0.05, 16 h p.i.): ~ 75%
Cmax [6]: ~4.1 µM
virions co-localized with EEs (SARS-CoV-2 virions; 30 min p.i., DMSO 24.0%): 21.4%
virions co-localized with EEs (SARS-CoV-2 virions; 60 min p.i., DMSO 5.1%): 4.1%
virions co-localized with ELs (SARS-CoV-2 virions; 60 min p.i., DMSO 18.3%, P < 0.05): 22.4%
virions co-localized with EEs (SARS-CoV-2 virions; 90 min p.i., DMSO 3.2%): 2.8%
virions co-localized with ELs (SARS-CoV-2 virions; 90 min p.i., DMSO ~13.5%, P < 0.001): ~ 23.6%
EC50 (influenza viruses): 2.5 to 20 µM
portion of unbound virions, % of the control group (SARS-CoV-2 binding): 156%

NC(=O)c1nc(F)c[nH]c1=O [favipiravir]
efficacy against SARS-CoV-2 in vitro (in words) (SARS-CoV-2 [1]): showed a certain efficacy
